Earlier results on one compound are cited in patent US20260115176A1, “ALLOSTERIC MODULATORS OF CANNABINOID RECEPTORS AND METHODS OF TREATING NEUROPATHIC PAIN” (The Board of Trustees of the Leland Stanford Junior …, priority 2020, published 2026).

The data set relates to rodent model of neuropathic pain. The conditions noted are these: background statement.

For the compound `Cc1ccc2c(C(C[N+](=O)[O-])c3cccs3)c(-c3ccccc3)[nH]c2c1` (centres unmarked) [ZCZ-011], the “efficacy in rodent model of neuropathic pain” value is “could treat a rodent model of neuropathic pain” and the “psychoactive or hypothermic effects” value was “without psychoactive or hypothermic effects”.
